Measured values as given in patent US10316017B2, “COT modulators and methods of use thereof” (Gilead Sciences, Inc., priority 2015, dated 2019).

Experiments:
[1] = test system: TNFα production in LPS-stimulated human monocytes; test: Cot Monocyte TNFα Cell Based Assay; settings: Homo sapiens, Monocyte, LPS-stimulated human monocytes, TNFα TR-FRET; read-out: EC50 TNF
Procedure, shortened: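 Cells at 5,000/well were pretreated with compound for 1 h at 37 °C (0.5% DMSO final), then stimulated with 50 pg/ml LPS for 4 h at 37 °C. Supernatant TNFα was measured by two-antibody TR-FRET after overnight room-temperature incubation; values are percent of control between unstimulated and stimulated wells.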

[2] = molecular target: T1, human Cot catalytic domain (30-397 amino acids) (Homo sapiens, UniProt P41279); test: High Throughput Cot Biochemical Assay (KinEASE TR-FRET); settings: Cot KinEASE TR-FRET, 400 μM ATP; read-out: IC50 HTRF
T1 construct: Purified recombinant human Cot catalytic domain (30-397 amino acids) was purchased from Cama Biosciences; purchased Cama Biosciences (so in the source)
T1 sequence (P41279 30-397): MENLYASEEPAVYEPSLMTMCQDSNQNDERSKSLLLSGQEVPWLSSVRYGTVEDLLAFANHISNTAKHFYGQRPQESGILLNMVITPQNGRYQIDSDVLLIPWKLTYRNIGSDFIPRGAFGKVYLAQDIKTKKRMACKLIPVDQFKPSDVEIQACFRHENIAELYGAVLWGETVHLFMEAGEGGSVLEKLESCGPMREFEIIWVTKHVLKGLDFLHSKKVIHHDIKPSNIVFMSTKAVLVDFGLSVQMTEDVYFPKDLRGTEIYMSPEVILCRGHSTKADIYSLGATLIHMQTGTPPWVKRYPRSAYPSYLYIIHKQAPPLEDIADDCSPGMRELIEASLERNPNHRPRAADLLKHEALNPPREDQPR
Procedure, shortened: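 Reaction of 5 nM recombinant human Cot catalytic domain (aa 30-397) with 1 μM STK3 peptide (XL665-labeled) and 400 μM ATP in 10 mM MOPS pH 7.0, 10 mM MgOAc, 1 mM DTT, 0.5 mg/mL BSA, 0.1% DMSO. Phosphopeptide detected by TR-FRET with europium anti-phospho antibody.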

Row | Structure (SMILES) | EC50 [1] [nM] | IC50 [2] [nM]
1 | Cc1c(-c2ccncc2)cccc1[C@H](Nc1cc(Cl)c2ncc(C#N)c(NCC(C)(C)C)c2c1)c1cn(C2(C(F)F)CC2)nn1 [Example 1085, (S)-8-chloro-6-(((1-(1-(difluoromethyl)cyclopropyl)-1H-1,2,3-triazol-4-yl)(2-methyl-3-(pyridin-4-yl)phenyl)methyl)amino)-4-(neopentylamino)quinoline-3-carbonitrile] | 205 | 5
2 | CCOC(=O)c1cccc([C@H](Nc2cc(Cl)c3ncc(C#N)c(NCC(C)(C)C)c3c2)c2cn(C3(C(F)(F)F)CC3)nn2)c1F [Example 1087, ethyl (S)-3-(((8-chloro-3-cyano-4-(neopentylamino)quinolin-6-yl)amino)(1-(1-(trifluoromethyl)cyclopropyl)-1H-1,2,3-triazol-4-yl)methyl)-2-fluorobenzoate] | 375 | 22
3 | COC(=O)c1cc([C@H](Nc2cc(Cl)c3ncc(C#N)c(NCC(C)(C)C)c3c2)c2cn(C3(C(F)(F)F)CC3)nn2)ccc1F [Example 1088, methyl (S)-5-(((8-chloro-3-cyano-4-(neopentylamino)quinolin-6-yl)amino)(1-(1-(trifluoromethyl)cyclopropyl)-1H-1,2,3-triazol-4-yl)methyl)-2-fluorobenzoate] | 934 | 22
4 | Cc1c(F)cccc1[C@H](Nc1cc(Cl)c2ncc(C#N)c(NCC(C)(C)C)c2c1)c1cn(C2(C(F)(F)F)CC2)nn1 [Example 1090, (S)-8-chloro-6-(((3-fluoro-2-methylphenyl)(1-(1-(trifluoromethyl)cyclopropyl)-1H-1,2,3-triazol-4-yl)methyl)amino)-4-(neopentylamino)quinoline-3-carbonitrile] | 614 | 75
5 | CC(C)(C)CNc1c(C#N)cnc2c(Cl)cc(N[C@@H](c3cccc(C4(C#N)CC4)c3)c3cn(C4(C(F)(F)F)CC4)nn3)cc12 [Example 1091, (S)-8-chloro-6-(((3-(1-cyanocyclopropyl)phenyl)(1-(1-(trifluoromethyl)cyclopropyl)-1H-1,2,3-triazol-4-yl)methyl)amino)-4-(neopentylamino)quinoline-3-carbonitrile] | ≥ 1000 | 28
6 | CC(C)(C)CNc1c(C#N)cnc2c(Cl)cc(N[C@@H](c3ccc(F)cc3)c3cn(C45CC(C4)C5)nn3)cc12 [Example 1092, (S)-6-(((1-(bicyclo[1.1.1]pentan-1-yl)-1H-1,2,3-triazol-4-yl)(4-fluorophenyl)methyl)amino)-8-chloro-4-(neopentylamino)quinoline-3-carbonitrile] | 395 | 20
7 | CC(C)(C)CNc1c(C#N)cnc2c(Cl)cc(N[C@@H](c3ccccc3)c3cn(C45CC(C4)C5)nn3)cc12 [Example 1093, (S)-6-(((1-(bicyclo[1.1.1]pentan-1-yl)-1H-1,2,3-triazol-4-yl)(phenyl)methyl)amino)-8-chloro-4-(neopentylamino)quinoline-3-carbonitrile] | 424 | 17
8 | CC(C)(C)CNc1c(C#N)cnc2c(Cl)cc(N[C@@H](c3cccc(C4(C#N)CC4)c3)c3cn(C45CC(C4)C5)nn3)cc12 [Example 1094, (S)-6-(((1-(bicyclo[1.1.1]pentan-1-yl)-1H-1,2,3-triazol-4-yl)(3-(1-cyanocyclopropyl)phenyl)methyl)amino)-8-chloro-4-(neopentylamino)quinoline-3-carbonitrile] | 407 | 10
9 | Cc1c(-c2ccncc2)cccc1[C@H](Nc1cc(Cl)c2ncc(C#N)c(NCC(C)(C)C)c2c1)c1cn(C2(C(F)(F)F)CC2)nn1 [Example 1095, (S)-8-chloro-6-(((2-methyl-3 (pyridin-4-yl)phenyl)(1-(1-(trifluoromethyl)cyclopropyl)-1H-1,2,3-triazol-4-yl)methyl)amino)-4-(neopentylamino)quinoline-3-carbonitrile] | 226 | 12
10 | Cc1c(-c2cccnc2)cccc1[C@H](Nc1cc(Cl)c2ncc(C#N)c(NCC(C)(C)C)c2c1)c1cn(C2(C(F)(F)F)CC2)nn1 [Example 1096, (S)-8-chloro-6-(((2-methyl-3-(pyridin-3-yl)phenyl)(1-(1-(trifluoromethyl)cyclopropyl)-1H-1,2,3-triazol-4-yl)methyl)amino)-4-(neopentylamino)quinoline-3-carbonitrile] | 262 | 10
11 | Cc1c(-c2cnn(C)c2)cccc1[C@H](Nc1cc(Cl)c2ncc(C#N)c(NCC(C)(C)C)c2c1)c1cn(C2(C(F)(F)F)CC2)nn1 [Example 1097, (S)-8-chloro-6-(((2-methyl-3-(1-methyl-1H-pyrazol-4-yl)phenyl) (1-(1-(trifluoromethyl)cyclopropyl)-1H-1,2,3-triazol-4-yl)methyl)amino)-4-(neopentylamino)quinoline-3-carbonitrile] | 166 | 9
12 | Cc1c(C#N)cccc1[C@H](Nc1cc(Cl)c2ncc(C#N)c(NCC(C)(C)C(F)(F)F)c2c1)c1cn(C2(C3CC3)CC2)nn1 [Example 1105, (S)-6-(((1-([1,1'-bi(cyclopropan)]-1-yl)-1H-1,2,3-triazol-4-yl)(3-cyano-2-methylphenyl)methyl)amino)-8-chloro-4-((3,3,3-trifluoro-2,2-dimethylpropyl)amino)quinoline-3-carbonitrile] | 90 | 5
13 | Cc1c(C#N)cccc1[C@H](Nc1cc(Cl)c2ncc(C#N)c(NCC(C)(C)C(F)(F)F)c2c1)c1cn([C@@H](C)CF)nn1 [Example 1106, 8-chloro-6-(((S)-(3-cyano-2-methylphenyl)(1-((S)-1-fluoropropan-2-yl)-1H-1,2,3-triazol-4-yl)methyl)amino)-4-((3,3,3-trifluoro-2,2-dimethylpropyl)amino) quinoline-3-carbonitrile] | 76 | 5

Other lines, results leading:

Row | EC50 [1] [nM] | IC50 [2] [nM] | Structure (SMILES)
14 | 73 | 7 | CC(C)(C)CNc1c(C#N)cnc2c(Cl)cc(N[C@@H](c3ccc(C#N)cc3)c3cn(C4CC4)nn3)cc12 [Example 1084, (S)-8-chloro-6-(((4-cyanophenyl)(1-cyclopropyl-1H-1,2,3-triazol-4-yl)methyl)amino)-4-(neopentylamino)quinoline-3-carbonitrile]
15 | 76 | 4 | Cc1c(-c2cnn(C)c2)cccc1[C@H](Nc1cc(Cl)c2ncc(C#N)c(NCC(C)(C)C)c2c1)c1cn(C2(C(F)F)CC2)nn1 [Example 1086, (S)-8-chloro-6-(((1-(1-(difluoromethyl)cyclopropyl)-1H-1,2,3-triazol-4-yl)(2-methyl-3-(1-methyl-1H-pyrazol-4-yl)phenyl)methyl)amino)-4-(neopentylamino)quinoline-3-carbonitrile]
16 | 23 | 7 | Cc1c(C#N)cccc1[C@H](Nc1cc(Cl)c2ncc(C#N)c(NCC(C)(C)C(F)(F)F)c2c1)c1cn(C2(C(F)F)CC2)nn1 [Example 1089, (S)-8-chloro-6-(((3-cyano-2-methylphenyl)(1-(1-(difluoromethyl)cyclopropyl)-1H-1,2,3-triazol-4-yl)methyl)amino)-4-((3,3,3-trifluoro-2,2-dimethylpropyl)amino)quinoline-3-carbonitrile]
17 | 73 | 23 | Cc1cc(C#N)ccc1[C@H](Nc1cc(Cl)c2ncc(C#N)c(NCC(C)(C)C)c2c1)c1cn(C2(C(F)F)CC2)nn1 [Example 1098, (S)-8-chloro-6-(((4-cyano-2-methylphenyl)(1-(1-(difluoromethyl)cyclopropyl)-1H-1,2,3-triazol-4-yl)methyl)amino)-4-(neopentylamino)quinoline-3-carbonitrile]
18 | 45 | 4 | Cc1c(C#N)cccc1[C@H](Nc1cc(Cl)c2ncc(C#N)c(NCC(C)(C)C)c2c1)c1cn(C2(CF)CC2)nn1 [Example 1100, (S)-8-chloro-6-(((3-cyano-2-methylphenyl)(1-(1-(fluoromethyl)cyclopropyl)-1H-1,2,3-triazol-4-yl)methyl)amino)-4-(neopentylamino)quinoline-3-carbonitrile]
19 | 27 | 3 | Cc1c(C#N)cccc1[C@H](Nc1cc(Cl)c2ncc(C#N)c(NCC(C)(C)C)c2c1)c1cn(C2(C)CC2)nn1 [Example 1101, (S)-8-chloro-6-(((3-cyano-2-methylphenyl)(1-(1-methylcyclopropyl)-1H-1,2,3-triazol-4-yl)methyl)amino)-4-(neopentylamino)quinoline-3-carbonitrile]
20 | 63 | 8 | Cc1c(C#N)cccc1[C@H](Nc1cc(Cl)c2ncc(C#N)c(NCC(C)(C)C)c2c1)c1cn(C(CF)CF)nn1 [Example 1102, (S)-8-chloro-6-(((3-cyano-2-methylphenyl)(1-(1,3-difluoropropan-2-yl)-1H-1,2,3-triazol-4-yl)methyl)amino)-4-(neopentylamino)quinoline-3-carbonitrile]
21 | 26 | 5 | Cc1c(C#N)cccc1[C@H](Nc1cc(Cl)c2ncc(C#N)c(NCC(C)(C)C)c2c1)c1cn([C@@H](C)CF)nn1 [Example 1103, 8-chloro-6-(((S)-(3-cyano-2-methylphenyl)(1-((S)-1-fluoropropan-2-yl)-1H-1,2,3-triazol-4-yl)methyl)amino)-4-(neopentylamino)quinoline-3-carbonitrile]
22 | 53 | 3 | Cc1c(C#N)cccc1[C@H](Nc1cc(Cl)c2ncc(C#N)c(NCC(C)(C)C(F)(F)F)c2c1)c1cn(C2(C)CC2)nn1 [Example 1104, (S)-8-chloro-6-(((3-cyano-2-methylphenyl)(1-(1-methylcyclopropyl)-1H-1,2,3-triazol-4-yl)methyl)amino)-4-((3,3,3-trifluoro-2,2-dimethylpropyl)amino)quinoline-3-carbonitrile]
